In patent US7785900B1, “Glutathione beads and GST fusion proteins” (STC.UNM, priority 2006, dated 2010):

Key:
Bcl-2 family proteins = conditions: Oltersdorf et al., 2005; read-out: binding constant obtained earlier; cited from earlier work
[1] = tested on: GST-Bcl-2 fusion proteins; test: FPA competition assay with FITC-Bid BH3 peptide; format: binding, human; conditions: 100 nM GST-Bcl-2 fusion proteins, 5 nM FITC-Bid BH3
Method: 100 nM of GST-Bcl-2 fusion proteins were incubated with various concentrations of EGCG or control compound ECG (“C”) for 2 min in PBS buffer in 50 μL. Then, 5 nM FITC-conjugated-Bid BH3 peptide was added, bringing final volume to 100 μL and final DMSO concentration to 1%. Fluorescence polarization was measured after 20 minutes.
C1.3 FPA competition assay for Bcl-2-binding compounds. The green tea compound […] has been reported to bind Bcl-2 and Bcl-XL (Leone et al., 2003). The ability of EGCG to compete with fluorochrome-labeled BH3 peptides was confirmed by FPA. […] This compound therefore can serve as a positive control when performing high throughput screens of any compound library, including the NIH library.

GST-Rab7 [2] = biological target: T1, GST-Rab7 (Homo sapiens, UniProt P51149); test: Competition of nucleotides with Bodipy-FL-GTP for bead-bound GST-Rab7; format: binding; conditions: 10 nM GST-Rab7 preloaded, 1 μM GTP*
T1 construct: made in house; host or cells: bacteria
T1 sequence (P51149 whole entry): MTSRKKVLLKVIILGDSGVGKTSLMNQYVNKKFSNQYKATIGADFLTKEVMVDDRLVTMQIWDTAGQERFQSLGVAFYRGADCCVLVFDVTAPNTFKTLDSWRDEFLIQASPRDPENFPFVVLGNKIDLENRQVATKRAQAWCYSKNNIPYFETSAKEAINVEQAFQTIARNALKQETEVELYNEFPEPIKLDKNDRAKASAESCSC
Text: The signal to background levels are compatible with homogeneous analysis of the binding of the fluorescent GTP analog. Moreover, the assay is conservative with respect to protein, using <1 pmol of protein per well.

GST-GFP = GST-GFP (Schistosoma japonicum, UniProt P08515); test: biochemical
GST-GFP, sequence (P08515 2-218, added parts left off): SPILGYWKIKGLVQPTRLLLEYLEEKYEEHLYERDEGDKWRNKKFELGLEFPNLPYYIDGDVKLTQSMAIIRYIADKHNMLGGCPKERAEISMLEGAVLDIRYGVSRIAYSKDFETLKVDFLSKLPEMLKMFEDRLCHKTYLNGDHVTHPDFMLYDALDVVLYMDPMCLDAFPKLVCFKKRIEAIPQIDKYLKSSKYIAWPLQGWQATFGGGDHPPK
Method: The standard assay for monitoring the concentration of free glutathione was performed in ten microliters of HPSM buffer with 0.01% dodecyl maltoside added to reduce nonspecific binding. Typically, two microliters of 50 nM GST-GFP and two microliters of bead suspension containing 10,000 beads (as determined using a hemacytometer) were added to six microliters of buffer, with or without some competitor, giving 10 nM GST-GFP in the suspension. The ten microliter assays were gently shaken in wells of a 96 V-shaped well plate (Corning Costar #2897) on a vortex mixer in a cold room for two hours.

Ras superfamily members = test: Multiplex Bodipy-FL-GTP binding and GTP competition
Method: The Bodipy-FL-GTP binding assay established using wild-type GST-Rab7 was adapted for multiplex, high-throughput assays by Sklar and colleagues.
384-well microplates are configured with 64 control wells (columns 1 and 2 unblocked, and columns 23 and 24 with 1 mM GTP), leaving 320 wells to which test compounds are added as per the Roadmap compound plates supplied. Compounds from the molecular library and GTP controls are added in 5 μl, Bodipy-FL-GTP is added in 5 μl, and GST-G protein-coated beads are added in 5 μl. […] The bead sets are coated by mixing each “address level of red fluorescence” bead type individually in the presence of ˜60 nM GST-small G protein for two hours with 5,000 beads per microliter. The sets are then combined together, centrifuged, and resuspended just before addition to the assay plate. The beads are kept in suspension during the competitive assay using rotation at 22° C. for 2 hours, then the plate is read at room temperature at a cytometer.

GST-Rab7 [3] = biological target: T1, GST-Rab7; test: Bodipy-FL-GTP binding to and dissociation from bead-bound GST-Rab7
Method: A fluorescent GTP-binding assay capable of being monitored by flow cytometry was developed and optimized using GST-Rab7 protein and Bodipy-FL-GTP (GTP*). […] Values are usually expressed as 1000 fluorescence equivalents of fluorescein in free solution (kMESF).
The binding of purified GST-Rab7 to bGSH was measured by using increasing concentrations (1.0-316.0 nM) of GST-Rab7 with a fixed amount of bGSH (−10,000 beads/reaction and excess (1.0 µM) GTP*).
In order to measure the rate of GTP* dissociation from bead-bound Rab7, bGSH were pre-loaded with 100 nM GST-Rab7 and incubated with 1 µM GTP* at 37° C. for 2 h. Dissociation of GTP* from the beads was then measured at 37° C. both for simple dilution with buffer as well as upon addition of 1000-fold higher (1 mM) non-fluorescent GTP (FIG. 6). The calculated half-time was 72.7s. The rate of dissociation in the presence of 1 mM unlabeled GTP alone was 9.6×10^−3s^−1.

CN(C)CC[C@H](CSc1ccccc1)Nc1ccc(S(=O)(=O)NC(=O)c2ccc(N3CCN(Cc4ccccc4-c4ccc(Cl)cc4)CC3)cc2)cc1[N+](=O)[O-] [ABT737]
Ki (Bcl-2 family proteins): < 1 nM

O=C(O[C@@H]1Cc2c(O)cc(O)cc2O[C@@H]1c1cc(O)c(O)c(O)c1)c1cc(O)c(O)c(O)c1 [ECGC, epigallecatechin]
competition with FITC-Bid BH3 peptide [1]: binds to all six anti-apoptotic members of the Bcl-2-family, to variable extents

Nc1nc2c(ncn2[C@@H]2O[C@H](COP(=O)(O)OP(=O)(O)O)[C@@H](O)[C@H]2O)c(=O)[nH]1 [GDP]
EC50 (GST-Rab7 [2]): 560 nM

N[C@@H](CCC(=O)N[C@@H](CS)C(=O)NCC(=O)O)C(=O)O [GSH, γ-glu-cys-gly]
EC50 (GST-GFP): 39000 nM | Ki (GST-GFP): 35000 nM

Cc1cc(C)n2c1C=C1C=CC(CCC(=O)NCCNC(=O)OC3C(COP(=O)(O)OP(=O)(O)OP(=O)(O)O)OC(n4cnc5c(=O)[nH]c(N)nc54)C3O)=[N+]1[B-]2(F)F (stereo not drawn) [GTP*]
specific binding affinities (Ras superfamily members; fourplex): within a factor of two of each other | EC50s (Ras superfamily members; sixplex, 25 or 50 nM Bodipy-FL-GTP): within the same order of magnitude | rate of dissociation (GST-Rab7 [3]; 1 mM GTP alone, 37° C.): 0.0096 s⁻¹ | Kd (GST-Rab7 [3]; GTP* binding to GST-Rab7): 94 nM
